Data on five molecules can be found in ChEMBL document CHEMBL3046587, “Baseline sensitivity of Monilinia laxa from Greece to fenhexamid and analysis of fenhexamid-resistant mutants” (Crop Prot, 2013).

Converted amounts (≈) assume the structure as drawn.

Holding throughout (format): functional, organism-based
Assay [1] has as its system Monilinia laxa. Kind of assay: Fungitoxicity against moderately fenhexamid resistant Monilinia laxa MF-8 assessed as reduction in mycelial growth measured at 25 degC after 4 days. To be noted: MF-8, 96 h.
The subject of assay [2] is Monilinia laxa. Kind of assay: Fungitoxicity against wild type Monilinia laxa K2 assessed as reduction in mycelial growth measured at 25 degC after 4 days. As to conditions: K2, 96 h.
The subject of assay [3] is Monilinia laxa. Kind of assay: Fungitoxicity against highly fenhexamid resistant Monilinia laxa MF-5 assessed as reduction in mycelial growth measured at 25 degC after 4 days. To be noted: MF-5, 96 h.
Assay [4] relates to Monilinia laxa. Kind of assay: Fungitoxicity against moderately fenhexamid resistant Monilinia laxa MF-22 assessed as reduction in mycelial growth measured at 25 degC after 4 days. To be noted: MF-22, 96 h.
For assay [5], the system named is Monilinia laxa. Kind of assay: Fungitoxicity against highly fenhexamid resistant Monilinia laxa MF-3 assessed as reduction in mycelial growth measured at 25 degC after 4 days. To be noted: MF-3, 96 h.
Assay [6] has as its system Monilinia laxa. Kind of assay: Fungitoxicity against moderately fenhexamid resistant Monilinia laxa MF-4 assessed as reduction in mycelial growth measured at 25 degC after 4 days. As to conditions: MF-4, 96 h.
Assay [7] concerns Monilinia laxa. Kind of assay: Fungitoxicity against moderately fenhexamid resistant Monilinia laxa MF-7 assessed as reduction in mycelial growth measured at 25 degC after 4 days. To be noted: MF-7, 96 h.
Assay [8] deals with Monilinia laxa. Kind of assay: Fungitoxicity against moderately fenhexamid resistant Monilinia laxa MF-1 assessed as reduction in mycelial growth measured at 25 degC after 4 days. As to conditions: MF-1, 96 h.
The test system of assay [9] is Monilinia laxa. Kind of assay: Fungitoxicity against highly fenhexamid resistant Monilinia laxa MF-2 assessed as reduction in mycelial growth measured at 25 degC after 4 days. As to conditions: MF-2, 96 h.
Assay [10] relates to Monilinia laxa. Kind of assay: Fungitoxicity against moderately fenhexamid resistant Monilinia laxa MF-6 assessed as reduction in mycelial growth measured at 25 degC after 4 days. As to conditions: MF-6, 96 h.

By EC50 is commonly meant the concentration that produces a half-maximal response. In the case of `CCCN(CC)CC1COC2(CCC(C(C)(C)C)CC2)O1` (stereo not given) [SPIROXAMINE], the EC50 in the assay on Monilinia laxa [1] came out at 3.2 µg/mL (≈ 10.8 µM); with Monilinia laxa [2], 3.5 µg/mL (≈ 11.8 µM); in the assay on Monilinia laxa [3], 3.5 µg/mL (≈ 11.8 µM); with Monilinia laxa [4], 3.3 µg/mL (≈ 11.1 µM); in the assay on Monilinia laxa [5], 3.6 µg/mL (≈ 12.1 µM); in the assay on Monilinia laxa [6], 2.9 µg/mL (≈ 9.75 µM). Further, the EC50 in the assay with Monilinia laxa [7] amounted to 3.5 µg/mL (≈ 11.8 µM); in the assay on Monilinia laxa [8], 3.8 µg/mL (≈ 12.8 µM); with Monilinia laxa [9], 3.7 µg/mL (≈ 12.4 µM); in the assay on Monilinia laxa [10] it was 12 µg/mL (≈ 40.3 µM).

On to `CCCN(CCOc1c(Cl)cc(Cl)cc1Cl)C(=O)n1ccnc1` [PROCHLORAZ], for which the EC50 in the assay with Monilinia laxa [1] turned out to be 0.02 µg/mL (≈ 0.0531 µM); in the assay on Monilinia laxa [2], 0.01 µg/mL (≈ 0.0265 µM); in the assay on Monilinia laxa [3] it was 0.01 µg/mL (≈ 0.0265 µM); in the assay with Monilinia laxa [4], 0.02 µg/mL (≈ 0.0531 µM); with Monilinia laxa [5], 0.02 µg/mL (≈ 0.0531 µM); in the assay on Monilinia laxa [6], 0.04 µg/mL (≈ 0.106 µM). For the same molecule, the EC50 in the assay with Monilinia laxa [7] came out at 0.08 µg/mL (≈ 0.212 µM); with Monilinia laxa [8], 0.01 µg/mL (≈ 0.0265 µM); in the assay with Monilinia laxa [9], 0.07 µg/mL (≈ 0.186 µM); with Monilinia laxa [10], 0.03 µg/mL (≈ 0.0796 µM).

Take `COC(=O)N(OC)c1ccccc1COc1ccn(-c2ccc(Cl)cc2)n1` [PYRACLOSTROBIN]: the half-maximal effective concentration (EC50) in the assay with Monilinia laxa [1] turned out to be 0.4 µg/mL (≈ 1.03 µM); in the assay on Monilinia laxa [2] it was 0.3 µg/mL (≈ 0.774 µM); with Monilinia laxa [3], 0.4 µg/mL (≈ 1.03 µM); with Monilinia laxa [4] it was 0.2 µg/mL (≈ 0.516 µM); in the assay on Monilinia laxa [5] it was 0.4 µg/mL (≈ 1.03 µM); with Monilinia laxa [6], 0.3 µg/mL (≈ 0.774 µM). Besides, the EC50 turned out to be 0.4 µg/mL (≈ 1.03 µM) in the assay on Monilinia laxa [7], 0.2 µg/mL (≈ 0.516 µM) with Monilinia laxa [8], 0.5 µg/mL (≈ 1.29 µM) in the assay with Monilinia laxa [9] and 0.1 µg/mL (≈ 0.258 µM) in the assay with Monilinia laxa [10].

In the case of `CC(C)NC(=O)N1CC(=O)N(c2cc(Cl)cc(Cl)c2)C1=O` [IPRODIONE], the concentration giving a half-maximal response (EC50) with Monilinia laxa [1] stood at 0.35 µg/mL (≈ 1.06 µM); in the assay with Monilinia laxa [2], 0.25 µg/mL (≈ 0.757 µM); in the assay with Monilinia laxa [3], 0.25 µg/mL (≈ 0.757 µM); with Monilinia laxa [4], 0.21 µg/mL (≈ 0.636 µM); with Monilinia laxa [5] it was 0.25 µg/mL (≈ 0.757 µM); in the assay with Monilinia laxa [6] it was 0.19 µg/mL (≈ 0.575 µM). In addition, the EC50 in the assay on Monilinia laxa [7] was 0.23 µg/mL (≈ 0.697 µM); in the assay with Monilinia laxa [8] it was 0.26 µg/mL (≈ 0.787 µM); with Monilinia laxa [9] it was 0.24 µg/mL (≈ 0.727 µM); with Monilinia laxa [10], 0.32 µg/mL (≈ 0.969 µM).

`CCCCCCCCCCCCCN1CC(C)OC(C)C1` (stereo not given) [TRIDEMORPH]: the EC50 with Monilinia laxa [1] is 0.4 µg/mL (≈ 1.34 µM); in the assay on Monilinia laxa [2] it was 0.1 µg/mL (≈ 0.336 µM); in the assay with Monilinia laxa [3], 0.08 µg/mL (≈ 0.269 µM); in the assay with Monilinia laxa [4] it was 0.1 µg/mL (≈ 0.336 µM); in the assay with Monilinia laxa [5], 0.11 µg/mL (≈ 0.37 µM); in the assay with Monilinia laxa [6], 0.12 µg/mL (≈ 0.403 µM). The half-maximal effective concentration (EC50) with Monilinia laxa [7] was 0.09 µg/mL (≈ 0.302 µM); in the assay with Monilinia laxa [8], 0.4 µg/mL (≈ 1.34 µM); in the assay with Monilinia laxa [9], 0.07 µg/mL (≈ 0.235 µM); with Monilinia laxa [10] it was 0.6 µg/mL (≈ 2.02 µM).
